From patent US20060205756A1, “Antitussives” (Kyowa Hakko Kogyo Co., Ltd., priority 2003, published 2006)

Test system: citric acid-induced cough
Experiment: Citric acid-induced cough model of guinea pig
Type: in vivo
Conditions: for Numbers of the cough reflex by inhalation of citric acid: 1 hour before citric acid inhalation (0.5 mol/L, 2 min), coughs counted during 15 minutes, mean ± standard error; for Suppression of cough reflex as compared with the solvent group: Student's t-test versus solvent-administered group
Text: Antitussive activity is able to be evaluated by suppression of the cough induced by inhalation of a substance such as citric acid, capsaicin, etc. It is also possible to evaluate antitussive activity by suppression of the cough induced by a direct infusion of citric acid or capsaicin into airway [Nippon Yakurigaku Zasshi, volume 120, page 237 (2002)]. It is further possible to evaluate antitussive activity by suppression of the cough by a physical stimulation, for example, contact stimulation of throat or airway [Eur. J. Phazmacol., volume 329, page 93 (1997)].
Evaluation Using the Citric Acid-Induced Cough Model of Guinea Pig
Guinea pigs (Hartley strain; male; six weeks age; Nippon SLC) were used for the test. Induction of cough reflex by citric acid was conducted in a similar manner to the method by Hosoe, et al. [Yakuri to Rinsho, volume 5, page 2147 (1995)]. Thus, the guinea pig was fixed in a double chamber plethysmograph box (manufactured by Buxco Electronics) for guinea pigs and ventilation was conducted at about 1.6 L/minute. A physiological saline containing 0.5 mol/L of citric acid (manufactured by Wako Pure Chemical) was sprayed for 2 minutes from the upper part of the box of the head side using an ultrasonic nebulizer (NE-U12 manufactured by Omron) and discharged from the side drain. The cough reflex was measured by the generated cough sound and the respiration waveform. Numbers of coughs generated during 15 minutes from initiation of inhalation of citric acid were counted. Compound 1, Compound 2 and codeine phosphate (manufactured by Shionogi) each was suspended in 0.5 w/v % methyl cellulose 400 cP (manufactured by Wako Pure Chemical) and orally administered 1 hour before the initiation of the inhalation of citric acid. Incidentally, with regard to the Compound 1 and Compound 2, each 2, mg thereof was suspended in 1 mL of 0.5 w/v % methyl cellulose 400 cP while, with regard to codeine phosphate, 4 mg thereof was suspended in 1 mL of 0.5 w/v % methyl cellulose 400 cP and the suspension was administered at 5 mL per kg body weight. Numbers of the cough reflex by inhalation of citric acid in the group administered with the solvent were 7.9±1.8, while those in the group administered with 10 mg/kg of Compound 1 were 2.0±1.0. In this test, seven guinea pigs were used for the group administered with the solvent and for the group administered with Compound 1, respectively. Numbers of the cough reflex were expressed as the mean value ±standard error. […] Numbers of the cough reflex by inhalation of citric acid in the group administered with 10 mg/kg of Compound 2 were 4.3±1.0, while those in the group administered with the solvent were 10.3±1.8. In this test, twelve guinea pigs were used for the group administered with the solvent and for the group administered with Compound 2, respectively. Numbers of the cough reflex were expressed as the mean value±standard error. […] Numbers of the cough reflex in the group administered with 20 mg/kg of codeine phosphate which is a central antitussive were 1.8±0.5, while those in the group administered with the solvent were 6.8±1.4. In this test, six guinea pigs were used for the group administered with the solvent and for the group administered with codeine phosphate. Numbers of the cough reflex were expressed as the mean value±standard error.

C[C@](O)(C(=O)Nc1cccc2c1C(=O)c1sccc1CS2(=O)=O)C(F)(F)F [Compound 1]
Numbers of the cough reflex by inhalation of citric acid (10 mg/kg oral): 2.0±1.0 | Suppression of cough reflex as compared with the solvent group (10 mg/kg oral): significant suppressive response

CC(C)(O)C(=O)Nc1cccc2c1C(=O)c1sccc1CS2(=O)=O [Compound 2]
Numbers of the cough reflex by inhalation of citric acid (10 mg/kg oral): 4.3±1.0 | Suppression of cough reflex as compared with the solvent group (10 mg/kg oral): significant suppressive response

COc1ccc2c3c1O[C@H]1[C@@H](O)C=C[C@H]4[C@@H](C2)N(C)CC[C@@]341 [codeine phosphate, reference compound]
Numbers of the cough reflex by inhalation of citric acid (20 mg/kg oral): 1.8±0.5
